Seven molecules from ChEMBL document CHEMBL1201862, “PubChem BioAssay data set” (2004) can be followed below.

Structures are written as SMILES. Active and inactive are the calls of the source. Unless noted, the calls are words filed in the database; no cut-off is given here.

Assay [1] has as its target Beta-2 adrenergic receptor (Homo sapiens, UniProt P07550). In words: ADRB2 activation measured by internalization – cell-based, FAP fluorogen, flow cytometry, cherry pick 1, dose response (AID 588763). The assay is classed as functional.
Assay [2] concerns H9c2. Briefly: cells. The assay is classed as functional, cell-based. The note with it: Rattus norvegicus, H9c2, Myocardium.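 Further: confirmatory concentration-response retest of ultra-high-throughput screening hits for modulation of myocardial damage; cell death induced by hydrogen peroxide oxidative stress; compound pretreatment for 60 min then peroxide exposure for 2 h; potency is for protecting the cells against peroxide damage rather than for killing them.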
Assay [3] has as its target T1, Hexokinase HKDC1 (Homo sapiens, UniProt Q2TB90).
T1 sequence (Q2TB90 whole entry): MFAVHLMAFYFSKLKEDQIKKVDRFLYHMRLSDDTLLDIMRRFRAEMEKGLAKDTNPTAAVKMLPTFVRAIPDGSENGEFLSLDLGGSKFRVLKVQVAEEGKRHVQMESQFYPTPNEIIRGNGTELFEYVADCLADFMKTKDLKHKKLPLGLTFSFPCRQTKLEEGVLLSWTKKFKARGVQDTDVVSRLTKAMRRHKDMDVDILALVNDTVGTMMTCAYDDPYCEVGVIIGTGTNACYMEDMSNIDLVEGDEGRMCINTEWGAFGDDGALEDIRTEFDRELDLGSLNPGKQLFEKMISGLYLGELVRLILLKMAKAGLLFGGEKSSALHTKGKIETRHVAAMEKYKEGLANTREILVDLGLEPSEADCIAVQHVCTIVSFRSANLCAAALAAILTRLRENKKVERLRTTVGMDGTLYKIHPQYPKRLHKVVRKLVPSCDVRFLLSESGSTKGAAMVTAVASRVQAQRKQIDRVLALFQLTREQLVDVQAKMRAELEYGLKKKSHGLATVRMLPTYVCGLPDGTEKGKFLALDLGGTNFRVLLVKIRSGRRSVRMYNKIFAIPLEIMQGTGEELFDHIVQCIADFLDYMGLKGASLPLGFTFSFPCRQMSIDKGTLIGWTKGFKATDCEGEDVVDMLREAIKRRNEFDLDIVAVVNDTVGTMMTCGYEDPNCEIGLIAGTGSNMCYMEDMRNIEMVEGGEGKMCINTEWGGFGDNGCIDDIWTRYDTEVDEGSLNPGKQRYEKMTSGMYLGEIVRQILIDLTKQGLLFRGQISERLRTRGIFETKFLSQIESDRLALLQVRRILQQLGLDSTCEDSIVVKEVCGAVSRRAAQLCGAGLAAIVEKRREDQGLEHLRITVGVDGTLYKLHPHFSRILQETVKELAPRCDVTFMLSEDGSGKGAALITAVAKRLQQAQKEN
Briefly: SAR analysis of small molecule inhibitors of hexokinase domain containing I (HKDC1). [Related pubchem assays (depositor defined):AID493160, AID493190]. It is filed as functional.

In assay [4] the target is T2, Hexokinase-1 (Homo sapiens, UniProt P19367).
T2 sequence (P19367 whole entry): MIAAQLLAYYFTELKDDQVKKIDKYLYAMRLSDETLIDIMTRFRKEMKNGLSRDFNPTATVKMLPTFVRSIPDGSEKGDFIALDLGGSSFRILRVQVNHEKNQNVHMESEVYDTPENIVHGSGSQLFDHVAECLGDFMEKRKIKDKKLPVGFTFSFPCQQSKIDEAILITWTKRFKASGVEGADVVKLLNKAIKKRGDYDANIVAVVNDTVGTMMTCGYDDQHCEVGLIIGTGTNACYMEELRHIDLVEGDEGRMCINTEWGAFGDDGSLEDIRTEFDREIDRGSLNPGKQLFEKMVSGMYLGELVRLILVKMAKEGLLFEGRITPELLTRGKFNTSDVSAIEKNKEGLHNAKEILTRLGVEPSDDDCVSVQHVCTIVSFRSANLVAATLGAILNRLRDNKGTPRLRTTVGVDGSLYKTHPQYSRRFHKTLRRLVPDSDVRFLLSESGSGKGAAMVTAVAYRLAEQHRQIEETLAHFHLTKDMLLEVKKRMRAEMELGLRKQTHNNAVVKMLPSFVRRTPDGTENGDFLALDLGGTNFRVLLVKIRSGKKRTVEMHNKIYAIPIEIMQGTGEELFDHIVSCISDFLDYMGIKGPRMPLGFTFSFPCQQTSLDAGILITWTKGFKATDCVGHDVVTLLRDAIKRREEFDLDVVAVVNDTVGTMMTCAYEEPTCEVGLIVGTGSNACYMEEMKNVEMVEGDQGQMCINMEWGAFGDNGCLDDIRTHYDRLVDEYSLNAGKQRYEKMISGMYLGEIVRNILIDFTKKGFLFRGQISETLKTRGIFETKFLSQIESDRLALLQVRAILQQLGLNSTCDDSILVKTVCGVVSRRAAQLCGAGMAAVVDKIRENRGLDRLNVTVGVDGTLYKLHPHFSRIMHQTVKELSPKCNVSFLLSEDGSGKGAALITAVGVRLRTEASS
In words: SAR analysis of small molecule inhibitors of hexokinase domain containing I (HKDC1) in the hexokinase 1 selectivity assay. [Related pubchem assays (depositor defined):AID493160, AID493190]. It is filed as functional.

The target in assay [5] is Keap1/Nrf2 (Homo sapiens, UniProt Q14145). In words: disruptors of Keap1 binding to Nrf2 peptide – biochemical, fluorescence polarization, cherry-picked samples, dose response (AID 588683).
Sequence of Keap1/Nrf2 (Q16236 whole entry): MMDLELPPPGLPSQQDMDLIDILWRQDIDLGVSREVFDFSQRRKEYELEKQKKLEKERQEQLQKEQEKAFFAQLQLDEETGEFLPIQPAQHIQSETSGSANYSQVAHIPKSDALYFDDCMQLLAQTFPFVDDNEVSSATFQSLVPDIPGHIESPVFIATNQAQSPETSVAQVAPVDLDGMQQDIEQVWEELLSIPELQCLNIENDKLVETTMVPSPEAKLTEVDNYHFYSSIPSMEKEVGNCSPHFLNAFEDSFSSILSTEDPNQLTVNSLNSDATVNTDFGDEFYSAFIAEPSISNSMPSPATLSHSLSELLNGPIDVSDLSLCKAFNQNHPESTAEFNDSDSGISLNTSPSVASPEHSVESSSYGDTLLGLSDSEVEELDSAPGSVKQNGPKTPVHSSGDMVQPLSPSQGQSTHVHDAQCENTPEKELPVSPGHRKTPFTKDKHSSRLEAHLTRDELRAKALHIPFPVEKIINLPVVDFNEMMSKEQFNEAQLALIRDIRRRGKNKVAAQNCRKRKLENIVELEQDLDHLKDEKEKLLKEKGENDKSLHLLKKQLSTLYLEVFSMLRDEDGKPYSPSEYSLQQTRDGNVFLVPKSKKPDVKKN
Sequence of Keap1/Nrf2 (Q14145 whole entry): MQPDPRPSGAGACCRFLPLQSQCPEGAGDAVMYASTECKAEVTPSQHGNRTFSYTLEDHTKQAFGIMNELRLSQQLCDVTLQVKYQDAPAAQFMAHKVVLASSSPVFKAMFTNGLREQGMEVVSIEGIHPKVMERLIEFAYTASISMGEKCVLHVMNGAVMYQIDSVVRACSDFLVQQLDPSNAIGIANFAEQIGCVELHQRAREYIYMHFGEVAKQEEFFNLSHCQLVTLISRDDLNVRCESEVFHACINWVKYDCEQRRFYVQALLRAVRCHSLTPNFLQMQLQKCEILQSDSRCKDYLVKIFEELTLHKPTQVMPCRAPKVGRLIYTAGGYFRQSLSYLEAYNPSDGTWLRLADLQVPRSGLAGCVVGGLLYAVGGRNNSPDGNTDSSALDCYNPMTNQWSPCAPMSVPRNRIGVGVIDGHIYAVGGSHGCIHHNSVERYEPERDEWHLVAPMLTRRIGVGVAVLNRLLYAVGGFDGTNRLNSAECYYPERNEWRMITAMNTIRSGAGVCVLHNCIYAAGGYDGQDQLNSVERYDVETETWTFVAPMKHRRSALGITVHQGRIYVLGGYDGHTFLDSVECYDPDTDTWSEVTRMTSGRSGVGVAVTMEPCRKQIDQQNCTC
The target in assay [6] is T3, ORF 73 (Human herpesvirus 8, UniProt O40947).
T3 sequence (O40947 whole entry): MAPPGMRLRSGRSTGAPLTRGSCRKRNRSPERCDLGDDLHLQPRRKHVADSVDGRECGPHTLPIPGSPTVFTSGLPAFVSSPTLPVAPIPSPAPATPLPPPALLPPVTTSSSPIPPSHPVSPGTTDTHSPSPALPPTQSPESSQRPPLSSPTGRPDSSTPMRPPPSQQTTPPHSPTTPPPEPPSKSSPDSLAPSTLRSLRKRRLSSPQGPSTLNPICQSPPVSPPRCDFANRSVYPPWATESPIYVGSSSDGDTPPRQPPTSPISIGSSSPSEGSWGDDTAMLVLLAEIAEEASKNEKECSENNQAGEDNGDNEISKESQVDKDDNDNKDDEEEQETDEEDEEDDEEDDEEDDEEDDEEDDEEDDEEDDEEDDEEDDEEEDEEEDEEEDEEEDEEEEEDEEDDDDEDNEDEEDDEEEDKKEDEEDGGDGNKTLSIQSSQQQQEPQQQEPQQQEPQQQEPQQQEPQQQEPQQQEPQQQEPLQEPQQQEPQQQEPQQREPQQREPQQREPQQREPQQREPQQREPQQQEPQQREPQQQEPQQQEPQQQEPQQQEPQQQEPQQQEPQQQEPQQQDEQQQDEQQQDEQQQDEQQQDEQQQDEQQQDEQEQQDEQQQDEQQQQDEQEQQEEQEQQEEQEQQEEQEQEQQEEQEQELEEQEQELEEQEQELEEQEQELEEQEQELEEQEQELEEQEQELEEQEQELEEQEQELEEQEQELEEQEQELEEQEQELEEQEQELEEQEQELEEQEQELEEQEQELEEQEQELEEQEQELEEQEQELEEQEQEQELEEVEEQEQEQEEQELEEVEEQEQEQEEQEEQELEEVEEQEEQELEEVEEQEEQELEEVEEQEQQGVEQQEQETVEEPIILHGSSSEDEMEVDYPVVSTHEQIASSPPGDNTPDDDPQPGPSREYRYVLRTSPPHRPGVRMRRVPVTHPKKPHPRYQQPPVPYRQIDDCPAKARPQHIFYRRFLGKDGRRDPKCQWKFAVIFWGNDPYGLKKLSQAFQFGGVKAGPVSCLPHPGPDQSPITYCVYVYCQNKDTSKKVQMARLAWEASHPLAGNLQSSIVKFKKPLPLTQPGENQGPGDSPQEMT
Briefly: KSHV LANA DNA-binding disruption – biochemical, fluorescence polarization, cherry-picked samples, dose response (AID 504725).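 Further: fluorescence polarization of a labeled DNA duplex reporting LANA DNA binding; potency is for inhibitors that block LANA binding to the DNA.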 Details: species or system Human gammaherpesvirus 8.

For assay [7], the target named is Potassium voltage-gated channel subfamily KQT member 2 (Rattus norvegicus, UniProt O88943). In words: Mode of action assay-Dose response assay for compounds that activate KCNQ2 potassium channels on automated patch clamp. [Related pubchem assays (depositor defined):AID2239, AID2258, AID2287, AID493113]. The assay is classed as functional.
Sequence of Potassium voltage-gated channel subfamily KQT member 2 (O88943 whole entry): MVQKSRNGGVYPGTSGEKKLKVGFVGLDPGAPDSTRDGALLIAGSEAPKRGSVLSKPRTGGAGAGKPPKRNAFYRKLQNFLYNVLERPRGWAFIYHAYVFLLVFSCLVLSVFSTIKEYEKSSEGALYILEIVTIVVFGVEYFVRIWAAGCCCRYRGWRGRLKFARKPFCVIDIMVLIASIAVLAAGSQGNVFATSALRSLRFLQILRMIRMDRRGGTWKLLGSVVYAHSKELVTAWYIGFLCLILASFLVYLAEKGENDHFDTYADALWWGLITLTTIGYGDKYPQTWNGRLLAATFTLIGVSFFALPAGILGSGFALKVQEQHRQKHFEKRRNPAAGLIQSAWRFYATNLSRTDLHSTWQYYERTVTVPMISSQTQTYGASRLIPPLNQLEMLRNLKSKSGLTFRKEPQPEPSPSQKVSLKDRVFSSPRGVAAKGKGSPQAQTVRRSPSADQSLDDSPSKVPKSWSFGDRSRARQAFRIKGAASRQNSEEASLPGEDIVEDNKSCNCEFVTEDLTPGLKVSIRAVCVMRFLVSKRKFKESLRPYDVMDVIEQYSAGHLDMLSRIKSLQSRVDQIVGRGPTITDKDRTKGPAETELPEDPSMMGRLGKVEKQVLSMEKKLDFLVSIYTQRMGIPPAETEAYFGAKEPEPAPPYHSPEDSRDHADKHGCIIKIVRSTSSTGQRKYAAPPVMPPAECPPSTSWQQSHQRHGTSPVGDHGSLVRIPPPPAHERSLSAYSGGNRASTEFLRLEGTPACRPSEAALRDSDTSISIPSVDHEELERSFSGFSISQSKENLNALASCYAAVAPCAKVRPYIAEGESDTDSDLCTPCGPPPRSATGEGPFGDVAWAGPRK
Assay [8] has as its target Potassium voltage-gated channel subfamily KQT member 2/member 3 (Rattus norvegicus, UniProt O88943+O88944). Briefly: Mode of action assay-Dose response assay for KCNQ2 activators in the KCNQ2/KCNQ3 co-expressing cells on automated patch clamp. [Related pubchem assays (depositor defined):AID2239, AID2258, AID2287]. It is filed as functional.
For assay [9], the target named is T4, Potassium voltage-gated channel subfamily KQT member 4 (Homo sapiens, UniProt P56696). In words: KCNQ4 thallium flux concentration-response – KCNQ4-expressing cells, selectivity assay for KCNQ2 activator project, dose response (AID 504416). The assay is classed as functional, cell-based.
T4 sequence (P56696 whole entry): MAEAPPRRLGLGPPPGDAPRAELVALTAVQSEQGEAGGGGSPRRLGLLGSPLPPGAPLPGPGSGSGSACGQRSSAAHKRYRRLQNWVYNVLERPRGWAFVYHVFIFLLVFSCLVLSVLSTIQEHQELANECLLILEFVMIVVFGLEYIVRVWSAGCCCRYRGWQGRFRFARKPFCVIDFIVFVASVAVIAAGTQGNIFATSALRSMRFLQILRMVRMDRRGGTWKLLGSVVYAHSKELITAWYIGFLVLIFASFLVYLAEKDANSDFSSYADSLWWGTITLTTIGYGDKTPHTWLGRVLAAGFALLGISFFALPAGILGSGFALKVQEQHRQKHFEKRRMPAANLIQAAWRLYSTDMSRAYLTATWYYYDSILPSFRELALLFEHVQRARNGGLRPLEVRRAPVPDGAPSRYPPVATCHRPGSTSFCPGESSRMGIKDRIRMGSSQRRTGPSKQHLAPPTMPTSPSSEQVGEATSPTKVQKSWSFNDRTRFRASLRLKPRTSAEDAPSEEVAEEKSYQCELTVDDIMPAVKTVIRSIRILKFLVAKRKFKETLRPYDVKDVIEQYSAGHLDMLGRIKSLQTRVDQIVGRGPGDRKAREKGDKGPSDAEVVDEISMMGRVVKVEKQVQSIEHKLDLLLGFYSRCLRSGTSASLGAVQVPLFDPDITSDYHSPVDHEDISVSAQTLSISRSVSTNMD
Assay [10] deals with T4, Potassium voltage-gated channel subfamily KQT member 4. Briefly: activation of KCNQ4 potassium current – automated patch clamp, CHO cells, selectivity assay for KCNQ2 activator project, dose response (AID 493043). The assay is classed as functional, cell-based.
For assay [11], the system named is HeLa. Briefly: ATP-based viability loss in HeLa cells – cell-based, CellTiter-Glo luminescence, cherry-pick samples, cytotoxicity control for MITF activator project, dose response (AID 540259). It is filed as functional. As to conditions: Homo sapiens.
In assay [12] the target is Beta-arrestin-1 (Homo sapiens, UniProt P49407). Briefly: beta-arrestin/AP2 interaction blockers, potency – biochemical, cherry pick 1, beta2-adaptin appendage, flow cytometry, dose response (AID 588783). It is filed as functional.
Sequence of Beta-arrestin-1 (P49407 whole entry): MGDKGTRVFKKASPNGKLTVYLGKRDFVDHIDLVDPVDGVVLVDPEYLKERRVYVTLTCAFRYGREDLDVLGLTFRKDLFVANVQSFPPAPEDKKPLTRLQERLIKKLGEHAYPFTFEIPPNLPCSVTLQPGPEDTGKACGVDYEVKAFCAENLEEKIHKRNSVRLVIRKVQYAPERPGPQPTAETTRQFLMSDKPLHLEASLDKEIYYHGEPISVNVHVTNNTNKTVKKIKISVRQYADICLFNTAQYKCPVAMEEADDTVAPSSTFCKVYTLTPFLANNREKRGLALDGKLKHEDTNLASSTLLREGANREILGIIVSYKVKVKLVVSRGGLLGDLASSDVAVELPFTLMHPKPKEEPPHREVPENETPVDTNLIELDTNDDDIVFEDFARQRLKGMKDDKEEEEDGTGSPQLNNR
The nature of assay [13]: Luminescence Cell-Based Dose Retest to Confirm Inhibitors of Cancer Stem Cells. [Related pubchem assays (depositor defined):AID2717, AID2721]. The note with it: Homo sapiens. It is filed as functional.
The nature of assay [14]: viability loss of HMLE_sh_eGFP cells – cell-based, luminescence, counter-screen for HMLE_sh_ECad selective toxicity project, dose response (AID 463074).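 Further: HMLE human mammary epithelial cells expressing control shRNA against eGFP.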 It is filed as functional, Homo sapiens.

Sequence of Potassium voltage-gated channel subfamily KQT member 2/member 3 (O88943 whole entry): as the sequence (O88943 whole entry) above
Sequence of Potassium voltage-gated channel subfamily KQT member 2/member 3 (O88944 whole entry): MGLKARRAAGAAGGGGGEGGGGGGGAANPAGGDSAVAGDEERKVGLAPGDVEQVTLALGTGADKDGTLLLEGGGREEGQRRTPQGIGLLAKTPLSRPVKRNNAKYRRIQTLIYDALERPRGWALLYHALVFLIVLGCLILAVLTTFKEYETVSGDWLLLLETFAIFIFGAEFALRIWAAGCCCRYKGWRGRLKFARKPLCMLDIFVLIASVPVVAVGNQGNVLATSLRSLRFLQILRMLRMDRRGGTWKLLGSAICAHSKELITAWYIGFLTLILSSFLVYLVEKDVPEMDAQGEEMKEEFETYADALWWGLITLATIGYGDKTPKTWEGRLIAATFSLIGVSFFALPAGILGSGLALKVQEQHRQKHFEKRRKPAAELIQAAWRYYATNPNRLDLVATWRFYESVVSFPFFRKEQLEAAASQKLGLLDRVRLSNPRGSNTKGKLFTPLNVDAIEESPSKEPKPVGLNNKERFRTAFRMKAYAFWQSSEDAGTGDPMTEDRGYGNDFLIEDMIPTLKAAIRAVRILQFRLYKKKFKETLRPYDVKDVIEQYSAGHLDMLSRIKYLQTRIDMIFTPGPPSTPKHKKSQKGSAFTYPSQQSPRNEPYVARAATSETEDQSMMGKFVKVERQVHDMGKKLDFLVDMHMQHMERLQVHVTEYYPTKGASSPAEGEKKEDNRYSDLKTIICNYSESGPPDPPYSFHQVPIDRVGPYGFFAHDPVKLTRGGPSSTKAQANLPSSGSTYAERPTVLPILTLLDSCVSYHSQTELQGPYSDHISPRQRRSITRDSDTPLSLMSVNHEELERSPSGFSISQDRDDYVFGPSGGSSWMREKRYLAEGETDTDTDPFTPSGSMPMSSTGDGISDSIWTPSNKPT
Sequence of Beta-2 adrenergic receptor (P07550 whole entry): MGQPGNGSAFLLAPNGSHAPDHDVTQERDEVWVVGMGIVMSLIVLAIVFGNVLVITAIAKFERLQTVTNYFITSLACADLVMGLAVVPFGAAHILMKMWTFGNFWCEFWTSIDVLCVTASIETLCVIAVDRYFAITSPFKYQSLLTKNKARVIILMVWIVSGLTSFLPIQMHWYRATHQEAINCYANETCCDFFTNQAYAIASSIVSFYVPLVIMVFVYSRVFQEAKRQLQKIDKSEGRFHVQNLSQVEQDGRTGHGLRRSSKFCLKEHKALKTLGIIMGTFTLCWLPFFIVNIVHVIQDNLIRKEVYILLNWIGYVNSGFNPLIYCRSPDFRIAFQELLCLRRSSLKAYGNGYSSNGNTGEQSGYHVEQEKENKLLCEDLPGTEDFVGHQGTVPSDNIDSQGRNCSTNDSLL

As for `CC(=O)Nc1ccc(S(=O)(=O)N(Cc2ccco2)Cc2cc3ccccc3nc2O)cc1`, the EC50 in assay [1] was 0.00464 µM (active). Moreover, the IC50 in assay [2] is > 79 µM (inactive).

For `O=c1c2ccccc2nc(/C=C/c2cccnc2)n1Cc1cccc(F)c1`, the IC50 in assay [3] and in [4] was > 80 µM (inactive) throughout.

`Fc1ccc(C2=CC(c3ccc(Br)o3)n3ncnc3N2)cc1` (centres undefined): the AC50 in assay [5] is 24 µM (active); in [6], 10.8 µM (active).

`Cc1cc(C)c(NC(=O)CC(C)(C)C)c(Cl)c1`: the EC50 in [7] was 0.867 µM (active); in assay [8], 0.625 µM (active); in [9], 8.78 µM (active); in assay [10], 15.3 µM (active).

Consider `O=C(c1cccs1)N1CCn2c1nc1ccccc12`, for which the AC50 in assay [11] is 115 µM (active).

`Cc1ccc(C2Nc3cccc4cccc(c34)N2)s1`: the IC50 in [12] was 15.3 µM (inactive).

As to `O=C(CSc1nc(-c2ccco2)cc(C(F)(F)F)n1)Nc1ccccc1C(F)(F)F`, the results for the AC50 in [13] and in assay [14] were 5.71 µM (active) and 23.1 µM (active), respectively.
